For the assay, the target named is T1, CCL21 (Homo sapiens, UniProt O00585).
T1 sequence (O00585 24-134): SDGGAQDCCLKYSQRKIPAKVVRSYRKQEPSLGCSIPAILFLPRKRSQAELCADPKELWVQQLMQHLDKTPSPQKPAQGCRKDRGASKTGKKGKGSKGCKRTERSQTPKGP
Description: […]-1H HSQC NMR titration, chemical shift perturbation fit with ligand depletion. The class given is binding. Particulars: 100 µM 15N-CCL21, 25 mM deuterated MES pH 6.0, 10% D2O, 0.2% NaN3.

pKd: −log10 of the molar value.

From publication PMC4967021 (Biochemical and biophysical research communications, 2016) come the findings set out here.

In general, pKd refers to −log10 of the Kd, conventionally taken in molar units. On to `O=C(O)C1=C[C@H](O)[C@@H](OS(=O)(=O)O)[C@H](O[C@H]2[C@H](O)[C@@H](NS(=O)(=O)O)C(O)O[C@@H]2COS(=O)(=O)O)O1` (stereo partly shown) [heparin disaccharide I-S], for which the pKd is around 3.30.
